Numbers after ± are expanded uncertainties.
Key:
[1] = Molar enthalpy of transition or fusion; settings: DSC

Molar enthalpy of transition or fusion ([1]; Crystal 1): 3.28 ± 0.335 kcal/mol
Molar enthalpy of transition or fusion ([1]; Crystal 2): 0.416 ± 0.0478 kcal/mol
Normal melting temperature (Crystal 1, DTA): 83.00 ± 2 °C
Triple point temperature (Crystal 2, DSC): 316.55 ± 2.1 K
SMILES: O=C1COC(=O)CO1 [1,4-dioxane-2,5-dione]
